Where only a bound is given, the exact number is not on record here.

The source of these data is patent publication US20140220110A1, “REMOTE LOADING OF SPARINGLY WATER-SOLUBLE DRUGS INTO LIPOSOMES” (ZONEONE PHARMA, INC., priority 2013, published 2014).

Data set [1] is described as follows: Carfilzomib solubility as a function of DMSO content (optical density at 600 nm). The note with it: 0.2 mg/mL carfilzomib. In kind it is physicochemical. The protocol:
Carfilzomib was added from a stock 10 mg/mL solution in DMSO to 1 mL of a citric acid/DMSO mixture so that the composition of DMSO was 2%, 25%, 50%, 75% and 100%. The final drug concentration was 0.2 mg/mL. The solutions were prepared and measured for optical density at 600 nm. The optical density at 600 nm is a good measure of how turbid or how much scattering material (such as drug precipitates) are in a solution, generally, the more precipitates the higher the absorbance. From FIG. 8 is apparent that at DMSO concentrations below 50% vol/vol (25° C.) and 25% vol/vol (65° C.) the drug remains in a precipitated form. Only when the concentration of DMSO is increased does it become effectively solubilized at this concentration of 0.2 mg/mL.

A short description of data set [2]: Reverse gradient-directed drug release from liposomes. The format is physicochemical. The settings on record: for % Carfilzomib Released: 65 C 30 min. The protocol:
Liposomes were loaded with carfilzomib as described in Example 1 and were purified into deionized water. The sample was divided into two aliquots. To the first aliquot, concentrated Hepes pH 7.4 and NaCl was added so that the final concentration was 5 mM Hepes, 145 mM NaCl (HBS). To the second aliquot, concentrated ammonium sulfate was added so that the final concentration was 250 mM. No obvious physical changes were initially observed. The samples were then heated at 65° C. for 30 min. The samples were transferred to clean eppendorf tubes and centrifuged for 10,000 rpm for 5 min after which the supernatants and precipitates were separated and tested for carfilzomib content by HPLC assay. Released drug precipitated, liposome encapsulated drug remained in the supernatant. The % carfilzomib released was calculated by […]

As for `CC(C)C[C@H](NC(=O)[C@H](CCc1ccccc1)NC(=O)CN1CCOCC1)C(=O)N[C@@H](Cc1ccccc1)C(=O)N[C@@H](CC(C)C)C(=O)[C@@]1(C)CO1` [carfilzomib], in data set [1] (25 C), the “DMSO concentration below which the drug remains in a precipitated form” value is recorded as 50 % vol/vol. Further, the “DMSO required to completely dissolve the drug” value in data set [1] (65 C) is over 25 % vol/vol. Moreover, the “drug released with reverse gradient over control with no reverse gradient” value in data set [2] turned out to be 6.5 fold. Moreover, the entries for the “% Carfilzomib Released” value in data set [2] (250 mM ammonium sulfate outside (reverse gradient)) and in data set [2] (Hepes buffered saline (no reverse gradient)) were 68.5 ± 1.82% and 10.6 ± 0.28%, respectively. For the same compound, the “degradation of released drug (HPLC chromatogram against starting material)” value in data set [2] (after loading and release by reverse gradient) was “no degradation of carfilzomib had taken place”.
